According to patent EP0041644B1 (priority 1980, dated 1981):

System: L-1210 Leukemia
Test: L-1210 Leukemia (Table VIII)
Settings: for lethality: 200 mg/kg, single ip injection; for maximum T/C / optimal doses: single ip injections; for optimal doses: dose of maximum T/C
Description: The sodium and ammonium salts of the present invention were tested against transplantable mouse tumors as indicated below. The methodology used generally followed the protocols of the National Cancer Institute (Cancer Chemotherapy Rep., Part 3, 3, 1-103 (1972). The essential experimental details are given at the bottom of the following tables.

Q: What does the source list for `O=C1[O][Pt]2([NH]C3CCCCC3[NH]2)[O]C(=O)C1[O-].[Na+]` (centres unmarked) [Example 6, 2-Hydroxymalonato(1,2-diaminocyclohexane)platinum (II), sodium salt]?
A: Average Weight Change (6 mg/kg/inj ip, qd 1→9): -0.9 g; Effect MST % T/C (6 mg/kg/inj ip, qd 1→9): 192 % T/C; MST Days (6 mg/kg/inj ip, qd 1→9): 11.5 days; Survivors Day 5(30) (6 mg/kg/inj ip, qd 1→9): 6/6; Average Weight Change (12 mg/kg/inj ip, qd 1→9): -2.3 g; Effect MST % T/C (12 mg/kg/inj ip, qd 1→9): 233 % T/C; MST Days (12 mg/kg/inj ip, qd 1→9): 14.0 days; Survivors Day 5(30) (12 mg/kg/inj ip, qd 1→9): 6/6; Average Weight Change (24 mg/kg/inj ip, qd 1→9): -2.4 g; Effect MST % T/C (24 mg/kg/inj ip, qd 1→9): 342 % T/C; MST Days (24 mg/kg/inj ip, qd 1→9): 20.5 days; Survivors Day 5(30) (24 mg/kg/inj ip, qd 1→9): 4/6; Average Weight Change (25 mg/kg/inj ip, d.1): -0.8 g; Effect MST % T/C (25 mg/kg/inj ip, d.1): 183 % T/C; MST Days (25 mg/kg/inj ip, d.1): 11.0 days; Survivors Day 5(30) (25 mg/kg/inj ip, d.1): 6/6; Average Weight Change (48 mg/kg/inj ip, qd 1→9): -3.3 g; Effect MST % T/C (48 mg/kg/inj ip, qd 1→9): 100 % T/C; MST Days (48 mg/kg/inj ip, qd 1→9): 6.0 days; Survivors Day 5(30) (48 mg/kg/inj ip, qd 1→9): 5/6; Average Weight Change (50 mg/kg/inj ip, d.1): -1.2 g; Effect MST % T/C (50 mg/kg/inj ip, d.1): 208 % T/C; MST Days (50 mg/kg/inj ip, d.1): 12.5 days; Survivors Day 5(30) (50 mg/kg/inj ip, d.1): 6/6; Average Weight Change,g (100 mg/kg/inj ip, d.1): +2.6 g; Effect MST % T/C (100 mg/kg/inj ip, d.1): 217 % T/C; MST Days (100 mg/kg/inj ip, d.1): 13.0 days; Survivors Day 5(30) (100 mg/kg/inj ip, d.1): 6/6; lethality: lethal; Average Weight Change,g (200 mg/kg/inj ip, d.1): TOX; Effect MST % T/C (200 mg/kg/inj ip, d.1): TOX; MST Days (200 mg/kg/inj ip, d.1): TOX; Survivors Day 5(30) (200 mg/kg/inj ip, d.1): 1/6; T/C (qd 1→9, 12 mg/kg/inj): 233%; T/C (qd 1→9, 24 mg/kg/injection): 342%; maximum T/C: 217%; optimal doses: 100 mg/kg

Q: Which results are given for `O=C1[O][Pt]2([NH]C3CCCCC3[NH]2)[O]C(=O)C1O` (centres unmarked) [2-hydroxymalonato(1,2-diaminocyclohexane)platinum (II)]?
A: Average Weight Change (25 mg/kg/inj ip, d.1): -0.3 g; Effect MST % T/C (25 mg/kg/inj ip, d.1): 142 % T/C; MST Days (25 mg/kg/inj ip, d.1): 8.5 days; Survivors Day 5(30) (25 mg/kg/inj ip, d.1): 6/6; Average Weight Change,g (50 mg/kg/inj ip, d.1): +0.1 g; Effect MST % T/C (50 mg/kg/inj ip, d.1): 150 % T/C; MST Days (50 mg/kg/inj ip, d.1): 9.0 days; Survivors Day 5(30) (50 mg/kg/inj ip, d.1): 6/6; Average Weight Change (100 mg/kg/inj ip, d.1): -1.5 g; Effect MST % T/C (100 mg/kg/inj ip, d.1): 183 % T/C; MST Days (100 mg/kg/inj ip, d.1): 11.0 days; Survivors Day 5(30) (100 mg/kg/inj ip, d.1): 6/6; lethality: lethal; Average Weight Change,g (200 mg/kg/inj ip, d.1): TOX; Effect MST % T/C (200 mg/kg/inj ip, d.1): TOX; MST Days (200 mg/kg/inj ip, d.1): TOX; Survivors Day 5(30) (200 mg/kg/inj ip, d.1): 0/6; maximum T/C: 183%; optimal doses: 100 mg/kg
